In article PMC6268546, “A PAMPA Assay as Fast Predictive Model of Passive Human Skin Permeability of New Synthesized Corticosteroid C-21 Esters” (Molecules, 2012):

Columns and labels:
[1] = parameters: method as in PMID 16789751; settings: 70% silicone-30% IPM membrane, 7 h; cited from earlier work
[2] = approximate logKp (permeability coefficient through human skin) calculated from logPe by equation (1); settings: logKp = 1.34 logPe + 0.28, from PAMPA logPe
Source text: Ottaviani and coworkers predicted skin permeation of numerous compounds applying a new membrane (70% silicone oil and 30% IPM) in the PAMPA test and presented permeate classifications on the basis of available literature permeability coefficients through human skin, logKp.
The proposed equation for correlation between logKp and logPe for 31 investigated compounds was: […]

[3] = PAMPA test (skin permeability model); settings: 70% silicone oil-30% IPM membrane, 7 h incubation, 100 μM in 5% DMSO phosphate buffer pH 7, triplicate mean
Procedure: The study was performed in triplicate and the results are presented as mean values. After the PAMPA tests was performed, a HPLC method was used to measure the concentrations of the investigated corticosteroids: the initial concentration–CD(0) in the starting solution, the residual concentration–CD(t) in the donor compartment (7 h after incubation) and the transferred concentration–CA(t) in the acceptor compartment (7 h after incubation). The assay was performed using the previously described HPLC method with mobile phase modification for determination of standard corticosteroids. The mobile phase modification was introduced to achieve complete separation standard corticosteroids peak from DMSO peak, which was used as cosolvent. DMSO was used as cosolvent with the aim of increasing the corticosteroid C-21 esters’ solubility. DMSO is one of the earliest and most widely studied penetration enhancers for transdermal drug delivery systems.
On the basis of the initial (100 μM) and calculated residual and transferred concentrations according to peak area comparison at zero time t0, the retention factors–R and permeability coefficients–logPe of investigated corticosteroids were obtained.
Phosphate buffer (pH = 7) was prepared by dissolving NaH2PO4·H2O (1.167 g) and Na2HPO4·7H2O (3.093 g) in water (1000 mL) with the fixed total concentration of 20 mM. The 5% DMSO solution were prepared dissolving DMSO in phosphate buffer. The corticosteroid solutions were prepared dissolving the investigated corticosteroid standards as well as new synthesized corticosteroid C-21 esters in 5% DMSO solution. […] An aliquot of previously prepared mixture (3.5 mL, 7 mL silicone oil and 3 mL IPM) was transferred into a 10 mL volumetric flask, dissolved and fill up to mark with n-hexane.
Permeation experiments were carried out in hydrophobic PVDF 96-well filter plates (Millipore, Molsheim, France). […] Next, in each well of acceptor plate, 5% DMSO solution (400 μL) was transferred with an automatic pipette and covered by the donor plate, creating a PAMPA sandwich. In each well of the donor plate solutions of the tested corticosteroid in 5% DMSO solution (100 μM, 300 μL) was transferred by the use of an automatic pipette. Each substance was measured in triplicate at iso-pH conditions (the same pH value in donor and receptor compartment). The donor plate was covered to prevent evaporation and the whole system set up to interact with the vibratory mixer. After 7 h, PAMPA sandwich was removed from the mixer and vibration, and using the HPLC method the concentration of the investigated substances in the donor and receptor compartments were determined. The HPLC method used was as previously described but with some necessary modifications. A mobile phase of methanol–water (75:25 v/v) was used for analysis of corticosteroid C-21 esters, while the mobile phase methanol–water (50:50 v/v) was used for the analysis of unesterified corticosteroids to increase their retention time and prevent overlapping with the DMSO peak. Other HPLC parameters were as previously described. The concentrations of each tested corticosteroid in the appropriate time interval in the donor and acceptor compartments were calculated using the method of comparing the peak area of the initial concentration at zero time t0.
The values of permeability coefficients–logPe and retention factors–R of examined corticosteroids were calculated using equations (2) and (3). The retention factor, R can be defined as the mole fraction retained in the membrane and in the microplates (i.e., filters and plate materials): [drawing 1] (2) where CA(t)/CD(0) represents the amount of compound that reached the acceptor compartment after incubation time t (for VA = VD): […]

logKp (approximate, calculated) [2]: −7.75
permeation parameter CA(t)/CD(0) [3]: 1.3 ± 0.8%
retention factor R (membrane retention) [3]: 4.2 ± 2.0%
SMILES: C[C@@H]1C[C@H]2[C@@H]3CCC4=CC(=O)C=C[C@]4(C)[C@@]3(F)[C@@H](O)C[C@]2(C)[C@@]1(O)C(=O)CO [DEX, dexamethasone, reference compound]
logPe previously reported [1]: −5.75
